Experimental data taken from ChEMBL document CHEMBL1133951, “New anti-malarial flavonol glycoside from Hydrangeae Dulcis Folium” (2001).

Assays:
Plasmodium falciparum [1] = experiment: Antimalarial potency against Plasmodium falciparum at 0.5 ng/mL.; type: functional
Plasmodium falciparum [2] = experiment: Anti-malarial potency against Plasmodium falciparum at 5 ng/ml; type: functional
Plasmodium falciparum [3] = experiment: Antimalarial potency against Plasmodium falciparum at 0.05 ng/mL.; type: functional
Plasmodium falciparum [4] = experiment: Anti-malarial potency against Plasmodium falciparum at 0.1 ng/ml; type: functional
Plasmodium falciparum [5] = experiment: Inhibitory ratio on proliferation of Plasmodium falciparum at 0.1 uM; type: functional
KB 3-1 [6] = experiment: Cytotoxic activity against KB 3-1 cells at 5 ug/mL; Not detected.; type: functional, cell-based; settings: Homo sapiens
KB 3-1 [7] = experiment: Cytotoxic activity against KB 3-1 cells at 5 ug/m; Not detected.; type: functional, cell-based; settings: Homo sapiens

SMILES	Activity (Plasmodium falciparum [1])	Activity (Plasmodium falciparum [2])	Activity (Plasmodium falciparum [3])	Activity (Plasmodium falciparum [4])	Inhibitory ratio (Plasmodium falciparum [5])	Cytotoxicity (KB 3-1 [6])	Cytotoxicity (KB 3-1 [7])
COc1cc(-c2oc3cc(O)cc(O)c3c(=O)c2O[C@H]2O[C@H](CO[C@@H]3O[C@@H](C)[C@H](O)[C@@H](O)[C@H]3O)[C@H](O)[C@@H](O)[C@H]2O)ccc1O	44.5%	41.5%	10.8%	24.5%	–	–	–
C=C[C@H]1CN2CC[C@H]1C[C@H]2[C@H](O)c1ccnc2ccc(OC)cc12 [QUININE]	–	–	–	–	45.3	–	–
C[C@@H]1O[C@@H](OC[C@H]2O[C@H](Oc3c(-c4ccc(O)c(O)c4)oc4cc(O)cc(O)c4c3=O)[C@H](O)[C@H](O)[C@H]2O)[C@H](O)[C@H](O)[C@H]1O	56%	56.4%	38.7%	51.6%	–	Not detected	–
C[C@@H]1O[C@@H](Oc2c(-c3ccc(O)c(O)c3)oc3cc(O)cc(O)c3c2=O)[C@H](O)[C@H](O)[C@H]1O[C@@H]1O[C@H](CO)[C@H](O)[C@@H](O)[C@H]1O	43.4%	48.1%	25%	32.8%	–	–	–
O=c1c(O[C@@H]2O[C@H](CO)[C@H](O)[C@@H](O)[C@H]2O)c(-c2ccc(O)c(O)c2)oc2cc(O)cc(O)c12	31.7%	36.8%	31.1%	27.7%	–	–	–
C[C@@H]1O[C@@H](OC[C@H]2O[C@@H](Oc3c(-c4ccc(O)cc4)oc4cc(O)cc(O)c4c3=O)[C@H](O[C@H]3OC[C@H](O)[C@@H](O)[C@@H]3O)[C@@H](O)[C@H]2O)[C@H](O)[C@H](O)[C@H]1O	68.7%	58.9%	37.6%	54.2%	–	Not detected	–
CC(=O)OC[C@H]1O[C@@H](O[C@@H]2[C@@H](O)[C@@H](O)[C@H](Oc3c(-c4ccc(O)c(O)c4)oc4cc(O)cc(O)c4c3=O)O[C@H]2C)[C@H](O)[C@H](O)[C@H]1O	52.1%	65.4%	27.4%	40.3%	–	Not detected	–
C[C@@H]1O[C@@H](Oc2c(-c3ccc(O)c(O)c3)oc3cc(O)cc(O)c3c2=O)[C@H](O)[C@H](O)[C@H]1O [QUERCITRIN]	36%	32.9%	34%	39.4%	–	–	–
C[C@@H]1O[C@@H](OC[C@H]2O[C@H](Oc3c(-c4ccc(O)cc4)oc4cc(O)cc(O)c4c3=O)[C@H](O)[C@H](O)[C@H]2O)[C@H](O)[C@H](O)[C@H]1O	60.1%	50.9%	30.5%	49.1%	–	–	–
O=c1c(O[C@@H]2O[C@H](CO[C@@H]3OC[C@@H](O)[C@H](O)[C@H]3O)[C@H](O)[C@H](O)[C@H]2O)c(-c2ccc(O)cc2)oc2cc(O)cc(O)c12	61.9%	56.2%	22.4%	43.1%	–	–	Not detected
